What was measured:
[1] = test system: antibodies in sera from SARS patients (sera 1a, 1b, 2, 6, 37, 62, London, SARS-yellow, SARS-green); format: binding, human; design: Binding of serum 6 to linear peptides of protein X1 of SARS-CoV Urbani / Binding of serum 37 to linear peptides of protein X1 of SARS-CoV Urbani / Binding of serum 6 to looped/cyclic peptide (PEPSCAN-ELISA) / Binding of serum 37 to looped/cyclic peptide (PEPSCAN-ELISA) / Binding of serum 37 to looped/cyclic peptides of protein X1 of SARS-CoV Urbani / Binding of serum 6 to linear peptides of protein X2 / Binding of serum 37 to linear peptides of protein X2 / Binding of serum 37 to looped/cyclic peptides of protein X2 of SARS-CoV Urbani / Binding of serum 6 to linear peptides of protein M of SARS-CoV Urbani / Binding of serum 37 to linear peptides of protein M of SARS-CoV Urbani / Binding of serum 6 to looped/cyclic peptides of protein M of SARS-CoV Urbani / Binding of serum 37 to looped/cyclic peptides of protein M of SARS-CoV Urbani / Binding of serum 6 to linear peptides of protein X3 of SARS-CoV Urbani / Binding of serum 37 to linear peptides of protein X3 of SARS-CoV Urbani / Binding of serum 37 to looped/cyclic peptides of protein X3 of SARS-CoV Urbani / Binding of serum 6 to linear peptides of protein X4 of SARS-CoV Urbani / Binding of serum 37 to linear peptides of protein X4 of SARS-CoV Urbani / Binding of serum 37 to looped/cyclic peptides of protein X4 of SARS-CoV Urbani / Binding of serum 6 to linear peptides of protein X5 of SARS-CoV Urbani / Binding of serum 37 to linear peptides of protein X5 of SARS-CoV Urbani / Binding of serum 37 to looped/cyclic peptides of protein X5 of SARS-CoV Urbani / Binding of serum 6 to linear peptides of protein N of SARS-CoV Urbani / Binding of serum 37 to linear peptides of protein N of SARS-CoV Urbani / Binding of serum 6 to linear peptide (PEPSCAN-ELISA) / Binding of serum 1a to looped/cyclic peptides of protein N of SARS-CoV Urbani / Binding of serum 1b to looped/cyclic peptides of protein N of SARS-CoV Urbani / Binding of serum 2 to looped/cyclic peptides of protein N of SARS-CoV Urbani / Binding of serum 6 to looped/cyclic peptides of protein N of SARS-CoV Urbani / Binding of serum 37 to looped/cyclic peptides of protein N of SARS-CoV Urbani / Binding of serum 62 to looped/cyclic peptides of protein N of SARS-CoV Urbani / Binding of serum London to looped/cyclic peptides of protein N of SARS-CoV Urbani / Binding of serum SARS-green to looped/cyclic peptides of protein N of SARS-CoV Urbani: unit not given here
[2] = test system: control sera (pooled serum of ten healthy LUMC hospital workers; commercial negative donor pooled serum from the Dutch bloodbank); format: binding, human; design: Binding of Control serum LUMC to linear peptides / Binding of Control serum Blood-bank to linear peptides / Binding of Control serum LUMC to looped peptides / Binding of Control Serum Blood-Bank to Looped peptides / Binding of Control serum LUMC to linear peptides of the protein M of SARS-CoV Urbani / Binding of Control serum Blood-bank to linear peptides of the protein M of SARS-CoV Urbani / Binding of Control serum LUMC to looped peptides of the protein M of SARS-CoV Urbani / Binding of Control Serum Blood-Bank to Looped peptides of the protein M of SARS-CoV Urbani: unit not given here
[3] = test system: rabbit serum obtained by immunizing a rabbit with the SARS-CoV strain Frankfurt 1; format: binding; design: Binding of a rabbit serum to linear peptides / Binding of a rabbit serum to looped peptides / Rabbit serum linear peptides / Rabbit serum looped peptides / Binding of a rabbit serum to linear peptides of protein N of SARS-CoV Urbani (Rabbit serum linear peptides) / Binding of a rabbit serum to looped/cyclic peptides of protein N of SARS-CoV Urbani (Rabbit serum looped peptides): unit not given here
[4] = test system: recombinant human anti-SARS-CoV antibody 03-018; format: binding; design: Binding of antibody 03-018 to linear peptides of the N protein of SARS-CoV Urbani / Binding of antibody 03-018 to looped/cyclic peptides of the N protein of SARS-CoV Urbani: unit not given here

| Sequence | Binding of serum 1a to linear peptides of protein N of SARS-CoV Urbani [1] | Binding of serum 1a to looped/cyclic peptides of protein N of SARS-CoV Urbani [1] | Binding of serum 1b to linear peptides of protein N of SARS-CoV Urbani [1] | Binding of serum 1b to looped/cyclic peptides of protein N of SARS-CoV Urbani [1] | Binding of serum 2 to linear peptides of protein N of SARS-CoV Urbani [1] | Binding of serum 2 to looped/cyclic peptides of protein N of SARS-CoV Urbani [1] | Binding of serum 6 to looped/cyclic peptides of protein N of SARS-CoV Urbani [1] | Binding of serum 37 to looped/cyclic peptides of protein N of SARS-CoV Urbani [1] | Binding of serum 62 to looped/cyclic peptides of protein N of SARS-CoV Urbani [1] | Binding of serum London to looped/cyclic peptides of protein N of SARS-CoV Urbani [1] | Binding of serum SARS-green to looped/cyclic peptides of protein N of SARS-CoV Urbani [1] | Binding of serum SARS-yellow to looped/cyclic peptides of protein N of SARS-CoV Urbani [1] | Binding of Control Serum Blood-Bank to Looped peptides [2] | Binding of Control serum Blood-bank to linear peptides [2] | Binding of Control serum LUMC to linear peptides [2] | Binding of Control serum LUMC to looped peptides [2] | Binding of a rabbit serum to linear peptides of protein N of SARS-CoV Urbani (Rabbit serum linear peptides) [3] | Binding of a rabbit serum to looped/cyclic peptides of protein N of SARS-CoV Urbani (Rabbit serum looped peptides) [3] | Binding of antibody 03-018 to linear peptides of the N protein of SARS-CoV Urbani [4] | Binding of antibody 03-018 to looped/cyclic peptides of the N protein of SARS-CoV Urbani [4] | other results |
| --- | --- | --- | --- | --- | --- | --- | --- | --- | --- | --- | --- | --- | --- | --- | --- | --- | --- | --- | --- | --- | --- |
| GLPNNTASWFTALTQ | 0.2 | 0.4 | 0.1 | 0.2 | 0.2 | 0.4 | 0.3 | 0.7 | 0.7 | 0.4 | 0.6 | 0.5 | 0.8 | 0.7 | 0.6 | 0.7 | 0.1 | 0.4 | 0.1 | 0.3 | Binding of serum 6 to linear peptides of protein N of SARS-CoV Urbani [1]: 0.1; Binding of serum 37 to linear peptides of protein N of SARS-CoV Urbani [1]: 0.7; Binding of serum 62 to linear peptides of protein N of SARS-CoV Urbani [1]: 0.6; Binding of serum London to linear peptides of protein N of SARS-CoV Urbani [1]: 0.4; Binding of serum SARS-green to linear peptides of protein N of SARS-CoV Urbani [1]: 0.4; Binding of serum SARS-yellow to linear peptides of protein N of SARS-CoV Urbani [1]: 0.4 |
| GNSRNSTPGSSRGNS |  | 0.6 |  | 0.5 |  | 0.4 | 0.4 | 0.5 | 0.5 | 0.3 | 0.1 | 0.5 | 0.6 | 0.8 | 0.7 | 0.7 | 0.2 | 0.8 | 0.1 | 0.2 | Binding of serum 1a to linear peptide (PEPSCAN-ELISA) [1]: 0.7; Binding of serum 1b to linear peptide (PEPSCAN-ELISA) [1]: 0.5; Binding of serum 2 to linear peptide (PEPSCAN-ELISA) [1]: 0.2; Binding of serum 6 to linear peptide (PEPSCAN-ELISA) [1]: 0.2; Binding of serum 37 to linear peptide (PEPSCAN-ELISA) [1]: 0.7; Binding of serum 62 to linear peptide (PEPSCAN-ELISA) [1]: 0.7; Binding of serum London to linear peptide (PEPSCAN-ELISA) [1]: 0.5; Binding of serum SARS-green to linear peptide (PEPSCAN-ELISA) [1]: 0.2; Binding of serum SARS-yellow to linear peptide (PEPSCAN-ELISA) [1]: 0.7 |
| GPEQTQGNFGDQDLI |  | 0.4 |  | 0.4 |  | 0.4 | 0.2 | 0.6 | 0.4 | 0.3 | 0.9 | 0.6 | 0.5 | 0.8 | 0.8 | 0.6 | 0.2 | 0.3 | 0.1 | 0.2 | Recognition of the peptide by sera of SARS-CoV infected individuals, and form (linear, looped/cyclic) in which it is recognized [1]: recognized in linear form |
| GPQSNQRSAPRITFG | 0.2 | 0.3 | 0.1 | 0.2 | 0.2 | 0.3 | 0.3 | 0.6 | 0.4 | 0.4 | 0.3 | 0.8 | 0.7 | 0.6 | 0.5 | 0.8 |  |  |  |  | Binding of serum 6 to linear peptides of protein N of SARS-CoV Urbani [1]: 0.1; Binding of serum 37 to linear peptides of protein N of SARS-CoV Urbani [1]: 0.6; Binding of serum 62 to linear peptides of protein N of SARS-CoV Urbani [1]: 0.7; Binding of serum London to linear peptides of protein N of SARS-CoV Urbani [1]: 0.4; Binding of serum SARS-green to linear peptides of protein N of SARS-CoV Urbani [1]: 0.4; Binding of serum SARS-yellow to linear peptides of protein N of SARS-CoV Urbani [1]: 0.5; Recognition of the peptide by the rabbit serum [3]: also recognized; Recognition of the peptide by antibody 03-018 [4]: recognized |
